Reference: US5498755A, “Disubstituted aryl and heteroaryl imines having retinoid-like biological activity” (priority 1994, dated 1996)

System: ornithine decarboxylase (ODC)
Assay: ODC assay: inhibition of TPA induction of ornithine decarboxylase
Assay type: biochemical
Conditions: concentration of the test compound which causes 80% inhibition in the ODC assay; TPA-induced ODC
Excerpt: The retinoic acid-like activity of these compounds is confirmed through the classic measure of retinoic acid activity involving the effects of retinoic acid on ornithine decarboxylase. The original work on the correlation between retinoic acid and decrease in cell proliferation was done by Verma & Boutwell, Cancer Research, 1977, 37, 2196-2201. That reference discloses that ornithine decarboxylase (ODC) activity increased precedent to polyamine biosynthesis. It has been established elsewhere that increases in polyamine synthesis can be correlated or associated with cellular proliferation. Thus, if ODC activity could be inhibited, cell hyperproliferation could be modulated. Although all cases for ODC activity increases are unknown, it is known that 12-O-tetradecanoylphorbol-13-acetate (TPA) induces ODC activity. […] Activity of exemplary compounds of the present invention in the above-described ODC assay is disclosed in Table 2 which provides the IC80 concentration for the respective exemplary compound. ("IC80 " is that concentration of the test compound which causes 80% inhibition in the ODC assay)

| SMILES | IC80 conc [nmols] |
| --- | --- |
| CCOC(=O)c1ccc(C=Nc2cc3c(cc2C)C(C)(C)CCC3(C)C)cc1 [Compound 6, N-(5,6,7,8-Tetrahydro-3,5,5,8,8-pentamethyl)-2-naphthalenyl 4-ethoxycarbonyl benzaldimine] | 293 |
| CCOC(=O)c1ccc(C(C)=Nc2ccc3c(c2)C(C)(C)CCC3(C)C)cc1 [Compound 5, N-(5,6,7,8-Tetrahydro-5,5,8,8-tetramethyl)-2-naphthalenyl 4-ethoxycarbonyl acetophenone imine] | 5.5 |
| CCOC(=O)c1ccc(C=Nc2ccc3c(c2)C(C)(C)CCC3(C)C)cc1 [Compound 4, N-(5,6,7,8-Tetrahydro-5,5,8,8-tetramethyl)-2-naphthalenyl 4-ethoxycarbonyl benzaldimine] | 2.5 |
| COC(=O)c1ccc(C=Nc2ccc3c(c2)C(C)(C)CCC3(C)C)cc1 [Compound 1] | 14.5 |

Other lines, results leading:

| IC80 conc [nmols] | SMILES |
| --- | --- |
| 9.6 | CCOC(=O)c1ccc(N=Cc2ccc3c(c2)C(C)(C)CCC3(C)C)cc1 [Compound 9, N-(4'-Ethoxycarbonyl)phenyl 5,6,7,8-tetrahydro-5,5,8,8-tetramethyl,naphthalene-2-carboxaldehyde imine] |
| 3.5 | CCOC(=O)c1ccc(N=Cc2cc3c(cc2C)C(C)(C)CCC3(C)C)cc1 [Compound 11, N-(4'-Ethoxycarbonyl) phenyl-2-(5,6,7,8-tetrahydro-3,5,5,8,8-pentamethyl) naphthalene-2-carboxaldehyde imine] |
| > 30 | CCOC(=O)c1ccc(C=Nc2ccc3c(c2)C(C)(C)CCC3(C)C)nc1 [Compound 7, Ethyl 6-(N-5,6,7,8-tetrahydro-5,5,8,8-tetramethyl-2-naphthalenyl) 3-ethoxycarbonyl-pyridine-6-carboxaldehyde imine] |
| 44.0 | CCOC(=O)c1ccc(N=Cc2ccc3c(c2)C(C)(C)CC(C)(C)O3)cc1 [Compound 10, N-(4'-Ethoxycarbonyl) phenyl 2,2,4,4-tetramethyl-chroman-6-carboxaldehyde imine] |

System: ornithine decarboxylase (ODC)
Assay: not given
Conditions: literature statement in words; 12-O-tetradecanoylphorbol-13-acetate (TPA) as inducer; cited from earlier work

| SMILES | inhibition of TPA induction of ODC activity |
| --- | --- |
| CC1=C(/C=C/C(C)=C/C=C/C(C)=C/C(=O)O)C(C)(C)CCC1 [Retinoic acid] | inhibits this induction of ODC activity by TPA |
